In patent US10669283B2, “Compound and pharmacologically acceptable salt thereof” (MEIJI SEIKA PHARMA CO., LTD., priority 2016, dated 2020) one finds IC50 data, which are given here for 36 molecules.

The assay concerns PDE4. Put plainly: PDE4 inhibition, scintillation proximity assay (SPA).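 Also: A below 100 nM B 100 to below 1000 nM C 1000 nM or more.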 Type of assay: biochemical. The note with it: scintillation proximity assay (SPA); evaluated as classes A, B, C; read-out: PDE4 Inhibitory Activity (concentration for the inhibition rate of 50%). How it is done: The PDE4 inhibitory activity was measured using scintillation proximity assay (SPA) as follows. A sample compound dissolved in dimethyl sulfoxide was diluted 1:10 in reaction buffer solution which contained 50 mM of Tris-HCl with pH 7.4, 8.3 mM of MgCl2, 1.7 mM of EGTA, and 3 mg/mL of bovine serum albumin (BSA). Then, 10 μL of the diluted solution was added in a 96-well assay plate. Moreover, 50 μL of PDE4 diluted 1:375 in the reaction buffer solution was added, and then 40 μL of [2,8-^3H]-adenosine-3′,5′-cyclic phosphate triethylammonium salt diluted 1:1000 in the reaction buffer solution was added. The mixture was allowed to stand at room temperature for 120 minutes. Thereafter, […] of RNA binding YSi-SPA beads suspension containing ZnSO4 was added and the mixture was allowed to stand at room temperature for 15 minutes, followed by adsorption of the enzyme reaction product to the beads. After that, the radioactivity was measured using a liquid scintillation counter for a 96-well plate. The mixture without the enzyme preparation added but only the reaction buffer solution added is a blank, and the mixture with the enzyme preparation added and only dimethyl sulfoxide added instead of the sample solution is a control.
(SPA uses beads or plates that emit light when radiolabelled molecules are held near them.)
Consider `CSc1cc(-c2nccs2)c2oc(N3CC4CCC(C3)N4)nc2c1` [Example 39, 2-(3,8-Diazabicyclo[3.2.1]octan-3-yl)-5-(methylthio)-7-(thiazol-2-yl)benzo[d]oxazole], for which the IC50 was less than 100 nM.
For `CSc1cc(-c2nccs2)c2oc(N3CC4CC(C3)N4)nc2c1` [Example 40, 2-(3,6-Diazabicyclo[3.1.1]heptan-3-yl)-5-(methylthio)-7-(thiazol-2-yl)benzo[d]oxazole] the value was less than 100 nM; for `CSc1cc(-c2nccs2)c2oc(N3CC4CCCC(C3)N4)nc2c1` [Example 41, 2-(3,9-Diazabicyclo[3.3.1]nonan-3-yl)-5-(methylthio)-7-(thiazol-2-yl)benzo[d]oxazole], less than 100 nM; for `C[S+]([O-])c1cc(-c2nccs2)c2oc(N3CC4CCC(C3)N4)nc2c1` (stereo not drawn) [Example 42, 2-(3,8-Diazabicyclo[3.2.1]octan-3-yl)-5-(methylsulfinyl)-7-(thiazol-2-yl)benzo[d]oxazole], less than 100 nM.
Under `C[S+]([O-])c1cc(-c2nccs2)c2oc(N3CC4CC(C3)N4)nc2c1` (stereo not drawn) [Example 43, 2-(3,6-Diazabicyclo[3.1.1]heptan-3-yl)-5-(methylsulfinyl)-7-(thiazol-2-yl)benzo[d]oxazole] stands less than 100 nM.
Under `C[S+]([O-])c1cc(-c2nccs2)c2oc(N3CC4CCCC(C3)N4)nc2c1` (stereo not drawn) [Example 44, 2-(3,9-Diazabicyclo[3.3.1]nonan-3-yl)-5-(methylsulfinyl)-7-(thiazol-2-yl)benzo[d]oxazole] stands less than 100 nM.
With `CS(=O)(=O)c1cc(-c2nccs2)c2oc(N3CC4CCC(C3)N4)nc2c1` [Example 45, 2-(3,8-Diazabicyclo[3.2.1]octan-3-yl)-5-(methylsulfonyl)-7-(thiazol-2-yl)benzo[d]oxazole], the IC50 is less than 100 nM.
For `CS(=O)(=O)c1cc(-c2nccs2)c2oc(N3CC4CC(C3)N4)nc2c1` [Example 46, 2-(3,6-Diazabicyclo[3.1.1]heptan-3-yl)-5-(methylsulfonyl)-7-(thiazol-2-yl)benzo[d]oxazole], the IC50 was less than 100 nM.
Under `CS(=O)(=O)c1cc(-c2nccs2)c2oc(N3CC4CCCC(C3)N4)nc2c1` [Example 47, 2-(3,9-Diazabicyclo[3.3.1]nonan-3-yl)-5-(methylsulfonyl)-7-(thiazol-2-yl)benzo[d]oxazole] stands less than 100 nM; under `CC(=O)Nc1cc(-c2nccs2)c2oc(N3CC4CCCC(C3)N4)nc2c1` [Example 48, N-(2-(3,9-diazabicyclo[3.3.1]nonan-3-yl)-7-(thiazol-2-yl)benzo[d]oxazol-5-yl)acetamide], less than 100 nM; under `CC(=O)Nc1cc(-c2nccs2)c2oc(N3CC4CC(C3)N4)nc2c1` [Example 49, N-(2-(3,6-diazabicyclo[3.1.1]heptan-3-yl)-7-(thiazol-2-yl)benzo[d]oxazol-5-yl)acetamide], 100 to 1000 nM.
For `CC(=O)Nc1cc(-c2nccs2)c2oc(N3CC4CCC(C3)N4)nc2c1` [Example 50, N-(2-(3,8-diazabicyclo[3.2.1]octan-3-yl)-7-(thiazol-2-yl)benzo[d]oxazol-5-yl)acetamide] the value was less than 100 nM; for `FC(F)(F)c1cc(-c2nccs2)c2oc(N3CC4CCC(C3)N4)nc2c1` [Example 51, 2-(3,8-Diazabicyclo[3.2.1]octan-3-yl)-7-(thiazol-2-yl)-5-(trifluoromethyl)benzo[d]oxazole], less than 100 nM; for `FC(F)(F)c1cc(-c2nccs2)c2oc(N3CC4CC(C3)N4)nc2c1` [Example 52, 2-(3,6-Diazabicyclo[3.1.1]heptan-3-yl)-7-(thiazol-2-yl)-5-(trifluoromethyl)benzo[d]oxazole], less than 100 nM.
For `FC(F)(F)c1cc(-c2nccs2)c2oc(N3CC4CCCC(C3)N4)nc2c1` [Example 53, 2-(3,9-Diazabicyclo[3.3.1]nonan-3-yl)-7-(thiazol-2-yl)-5-(trifluoromethyl)benzo[d]oxazole] the value was less than 100 nM; for `FC(F)(F)Oc1cc(-c2nccs2)c2oc(N3CC4CCC(C3)N4)nc2c1` [Example 54, 2-(3,8-Diazabicyclo[3.2.1]octan-3-yl)-7-(thiazol-2-yl)-5-(trifluoromethoxy)benzo[d]oxazole], less than 100 nM.
For `FC(F)(F)Oc1cc(-c2nccs2)c2oc(N3CC4CCCC(C3)N4)nc2c1` [Example 55, 2-(3,9-Diazabicyclo[3.3.1]nonan-3-yl)-7-(thiazol-2-yl)-5-(trifluoromethoxy)benzo[d]oxazole], the IC50 was less than 100 nM.
Under `FC(F)(F)Oc1cc(-c2nccs2)c2oc(N3CC4CC(C3)N4)nc2c1` [Example 56, 2-(3,6-Diazabicyclo[3.1.1]heptan-3-yl)-7-(thiazol-2-yl)-5-(trifluoromethoxy)benzo[d]oxazole] stands less than 100 nM; under `NS(=O)(=O)c1cc(-c2nccs2)c2oc(N3CC4CCC(C3)N4)nc2c1` [Example 57, 2-(3,8-Diazabicyclo[3.2.1]octan-3-yl)-7-(thiazol-2-yl) benzo[d]oxazole-5-sulfonamide], less than 100 nM; under `NS(=O)(=O)c1cc(-c2nccs2)c2oc(N3CC4CC(C3)N4)nc2c1` [Example 58, 2-(3,6-Diazabicyclo[3.1.1]heptan-3-yl)-7-(thiazol-2-yl)benzo[d]oxazole-5-sulfonamide], less than 100 nM.
Under `NS(=O)(=O)c1cc(-c2nccs2)c2oc(N3CC4CCCC(C3)N4)nc2c1` [Example 59, 2-(3,9-Diazabicyclo[3.3.1]nonan-3-yl)-7-(thiazol-2-yl) benzo[d]oxazole-5-sulfonamide] stands less than 100 nM.
For `COc1cc(-c2nccs2)c2oc(N3CC4CCC(C3)N4)nc2c1` [Example 60, 2-(3,8-Diazabicyclo[3.2.1]octan-3-yl)-5-methoxy-7-(thiazol-2-yl)benzo[d]oxazole] the value was less than 100 nM; for `COc1cc(-c2nccs2)c2oc(N3CC4CC(C3)N4)nc2c1` [Example 61, 2-(3,6-Diazabicyclo[3.1.1]heptan-3-yl)-5-methoxy-7-(thiazol-2-yl)benzo[d]oxazole], less than 100 nM.
Turning to `COc1cc(-c2nccs2)c2oc(N3CC4CCCC(C3)N4)nc2c1` [Example 62, 2-(3,9-Diazabicyclo[3.3.1]nonan-3-yl)-5-methoxy-7-(thiazol-2-yl)benzo[d]oxazole], the IC50 was less than 100 nM.
For the molecule `Oc1cc(-c2nccs2)c2oc(N3CC4CCC(C3)N4)nc2c1` [Example 63, 2-(3,8-Diazabicyclo[3.2.1]octan-3-yl)-7-(thiazol-2-yl) benzo[d]oxazol-5-ol], the IC50 is less than 100 nM.
For `Oc1cc(-c2nccs2)c2oc(N3CC4CC(C3)N4)nc2c1` [Example 64, 2-(3,6-Diazabicyclo[3.1.1]heptan-3-yl)-7-(thiazol-2-yl)benzo[d]oxazol-5-ol] the value was less than 100 nM.
Under `Oc1cc(-c2nccs2)c2oc(N3CC4CCCC(C3)N4)nc2c1` [Example 65, 2-(3,9-Diazabicyclo[3.3.1]nonan-3-yl)-7-(thiazol-2-yl) benzo[d]oxazol-5-ol] stands less than 100 nM; under `FC(F)(F)COc1cc(-c2nccs2)c2oc(N3CC4CCC(C3)N4)nc2c1` [Example 66, 2-(3,8-Diazabicyclo[3.2.1]octan-3-yl)-7-(thiazol-2-yl)-5-(2,2,2-trifluoroethoxy)benzo[d]oxazole], less than 100 nM; under `FC(F)(F)COc1cc(-c2nccs2)c2oc(N3CC4CC(C3)N4)nc2c1` [Example 67, 2-(3,6-Diazabicyclo[3.1.1]heptan-3-yl)-7-(thiazol-2-yl)-5-(2,2,2-trifluoroethoxy)benzo[d]oxazole], less than 100 nM.
For `CC(C)Oc1cc(-c2nccs2)c2oc(N3CC4CCC(C3)N4)nc2c1` [Example 68, 2-(3,8-Diazabicyclo[3.2.1]octan-3-yl)-5-isopropoxy-7-(thiazol-2-yl)benzo[d]oxazole] the value was less than 100 nM.
Take `COCCOc1cc(-c2nccs2)c2oc(N3CC4CCC(C3)N4)nc2c1` [Example 69, 2-(3,8-Diazabicyclo[3.2.1]octan-3-yl)-5-(2-methoxyethoxy)-7-(thiazol-2-yl)benzo[d]oxazole]: the IC50 was less than 100 nM.
For `c1csc(-c2cc(OCC3COC3)cc3nc(N4CC5CCC(C4)N5)oc23)n1` [Example 70, 2-(3,8-Diazabicyclo[3.2.1]octan-3-yl)-5-(oxetan-3-ylmethoxy)-7-(thiazol-2-yl)benzo[d]oxazole] the value was less than 100 nM; for `OCC(CO)COc1cc(-c2nccs2)c2oc(N3CC4CCC(C3)N4)nc2c1` [Example 71, 2-(((2-(3,8-Diazabicyclo[3.2.1]octan-3-yl)-7-(thiazol-2-yl)benzo[d]oxazol-5-yl)oxy)methyl)propane-1,3-diol], less than 100 nM.
Under `C=CCOc1cc(-c2nccs2)c2oc(N3CC4CCC(C3)N4)nc2c1` [Example 72, 5-(Allyloxy)-2-(3,8-diazabicyclo[3.2.1]octan-3-yl)-7-(thiazol-2-yl)benzo[d]oxazole] stands less than 100 nM.
For `N#CCOc1cc(-c2nccs2)c2oc(N3CC4CCC(C3)N4)nc2c1` [Example 73, 2-((2-(3,8-Diazabicyclo[3.2.1]octan-3-yl)-7-(thiazol-2-yl)benzo[d]oxazol-5-yl)oxy)acetonitrile] the value was less than 100 nM; for `O=C(O)COc1cc(-c2nccs2)c2oc(N3CC4CCC(C3)N4)nc2c1` [Example 74, 2-((2-(3,8-Diazabicyclo[3.2.1]octan-3-yl)-7-(thiazol-2-yl)benzo[d]oxazol-5-yl)oxy)acetic acid], less than 100 nM.
